Results published in US20020170080A1, “Alpha-tocopherol transfer protein knockout animals” (The Regents of the University of California, priority 2000, published 2002).

Columns and labels:
apo E^−/− mice = settings: apo E−/− mice fed a chow diet, vitamin E supplementation; cited from earlier work
Ttpa^−/− females = assay: Vitamin E supplementation of the diet and the fertility defect of Ttpa−/− female mice; assay type: in vivo, mouse; settings: vitamin E supplementation 1000 IU/kg of diet, data not shown
Excerpt: Ttpa^−/− mice were generally healthy. Offspring from heterozygous intercrosses were born with the expected Mendelian distribution. Ttpa^−/− mice at 18 months of age had no obvious signs of neurological disease. In contrast, humans with α-TTP gene defects develop ataxia with vitamin E deficiency by the first decade of life (Sokol et al. (1988) J. Lab. Clin. Med. 111: 548-559; Ouahchi et al. (1995) Nat. Genet. 9: 141-145; Hentati et al. (1996) Ann. Neurol. 39: 295-300). […] Ttpa^−/− males had no obvious impairment in fertility.

[1] = test system: abdominal aortas or iliac arteries; settings: nonhuman primates; cited from earlier work
femoral artery lesions = settings: human clinical trial; cited from earlier work

| Compound | levels of atherosclerosis (apo E^−/− mice) | effect on fertility defect (Ttpa^−/− females) | lesion development in abdominal aortas or iliac arteries [1] | progression of femoral artery lesions (femoral artery lesions) |
| --- | --- | --- | --- | --- |
| vitamin E | decreased levels of atherosclerosis | completely reversed the fertility defect | – | – |
| CC(C)(Sc1cc(C(C)(C)C)c(O)c(C(C)(C)C)c1)Sc1cc(C(C)(C)C)c(O)c(C(C)(C)C)c1 [probucol] | – | – | did not prevent | did not prevent progression of femoral artery lesions |
